Values belong to the compound of their own block, whether it stands above or below them.
Test: Relative stability of the crystalline forms of Efavirenz
Format: physicochemical
Description: Five Forms designated as Form 1, Form 2, Form 3, form 4, Form 5 have been identified. Each Form is distinguishable from the other forms by x-ray powder diffraction (XRD) and differential scanning calorimetry (DSC). Each form can be isolated in substantially pure form under the conditions described. Further, the forms may be interconverted by procedures taught herein.
It has a melting point of about 138° C. to about 140° C., which is the highest of the four forms. Due to its increased stability, it is commonly used for drug formulation. All other forms may be converted into Form 1 during drying at about 60° C. to about 110° C. Conversion and drying is preferably done in a dryer oven at about 70° C. to about 110° C. under reduced pressure. More preferred is about 75° C. to about 85° C. Form 5 is converted to Form 1 by heating to 95° C under reduced pressure. Forms 2 and 3 may also be converted into Form 1 using a hydrocarbon slurry at about 65° C. to about 75° C. Heptane is the most preferred hydrocarbon for this conversion. Form 4, however, may not convert to Form 1 under these conditions because it is soluble at about 70° C. Form 1 may be directly crystallized from heptane when the saturated solution is seeded at about 60° C. to about 75° C. and held at about this temperature until Form 1 starts crystallizing.
The thermal properties of Efavirenz were characterized with differential scanning calorimetry using a TA Instruments DSC 910, with data analysis via a TA Instruments Thermal Analyzer 2100. Samples were placed in sealed aluminum pans for analysis with an empty aluminum pan serving as the reference. Heating rates of 5° C. per minute or 10° C. per minute were employed over a temperature range of 25° C. to 200° C. The instrument was calibrated with a indium standard.

thermodynamic stability among the crystalline forms (solid forms compared, highest melting point): most thermodynamically stable form
Structure (SMILES): O=C1Nc2ccc(Cl)cc2[C@@](C#CC2CC2)(C(F)(F)F)O1 [Form 1, (S)-6-chloro-4-cyclopropylethynyl-4-trifluoromethyl-1,4-dihydro-2H-3,1-benzoxazin-2-one]

stability (inferred from the melting point observed by differential scanning calorimetry): exceptional stability
Structure (SMILES): O=C1Nc2ccc(Cl)cc2[C@@](C#CC2CC2)(C(F)(F)F)O1 [Form 2, (S)-6-chloro-4-cyclopropylethynyl-4-trifluoromethyl-1,4-dihydro-2H-3,1-benzoxazin-2-one]

stability of the form in solution slurries (solution slurries of Efavirenz at room temperature): most stable form
Structure (SMILES): O=C1Nc2ccc(Cl)cc2[C@@](C#CC2CC2)(C(F)(F)F)O1 [Form 3, (S)-6-chloro-4-cyclopropylethynyl-4-trifluoromethyl-1,4-dihydro-2H-3,1-benzoxazin-2-one]

Structure (SMILES): O=C1Nc2ccc(Cl)cc2[C@@](C#CC2CC2)(C(F)(F)F)O1 [Form 5, (S)-6-chloro-4-cyclopropylethynyl-4-trifluoromethyl-1,4-dihydro-2H-3,1-benzoxazin-2-one]
thermodynamic stability among the crystalline forms (below 40° C.): most thermodynamically stable crystalline form
